Patent US20230233569A1 (Revolution Medicines, Inc., priority 2020, published 2023)
Where two headings read alike, the source gives them in different places.

Columns and labels:
Assay in all cases: Ras-Raf disruption / FRET / MOA assay (BRAF RBD)
Format in all cases: biochemical
[1] = molecular target: KRAS G12D (Homo sapiens, UniProt P01116+P62937, G12D); conditions: with Cyclophilin A
From the text: (§1) Disruption of […] Ras-binding Domain (BRAF^RBD) Interaction with K-Ras by Compounds of the Invention (also Called a FRET Assay or an MOA Assay)
(§2) Note—The following protocol describes a procedure for monitoring disruption of K-Ras G12C (GMP-PNP) binding to BRAF^RBD by a compound of the invention. This protocol may also be executed substituting other Ras proteins or nucleotides, such as K-Ras G12D and K-Ras G13D.
(§3) The purpose of this biochemical assay was to measure the ability of test compounds to facilitate ternary complex formation between a nucleotide-loaded K-Ras isoform and Cyclophilin A; the resulting ternary complex disrupts binding to a BRAF^RBD construct, inhibiting K-Ras signaling through a RAF effector. Data is reported as IC50 values.
(§4) In assay buffer containing 25 mM HEPES pH 7.3, 0.002% Tween20, 0.1% BSA, 100 mM NaCl and 5 mM MgCl2, tagless Cyclophilin A, His6-K-Ras-GMPPNP, and GST-BRAF^RBD were combined in a 384-well assay plate at final concentrations of 25 μM, 12.5 nM, and 50 nM, respectively. Compound was present in plate wells as a 10-point 3-fold dilution series starting at a final concentration of 30 μM. After incubation at 25° C. for 3 hours, a mixture of anti-His Eu-W1024 and anti-GST allophycocyanin was then added to assay sample wells at final concentrations of 10 nM and 50 nM, respectively, and the reaction incubated for an additional 1.5 hours. […] Compounds that facilitate disruption of a K-Ras:RAF complex were identified as those eliciting a decrease in the TR-FRET ratio relative to DMSO control wells.

[2] = molecular target: KRAS G12S (Homo sapiens, UniProt P01116+P62937, G12S); conditions: with Cyclophilin A
KRAS G12S, sequence (P01116 1-169 isoform P01116-2 G12S limits assumed): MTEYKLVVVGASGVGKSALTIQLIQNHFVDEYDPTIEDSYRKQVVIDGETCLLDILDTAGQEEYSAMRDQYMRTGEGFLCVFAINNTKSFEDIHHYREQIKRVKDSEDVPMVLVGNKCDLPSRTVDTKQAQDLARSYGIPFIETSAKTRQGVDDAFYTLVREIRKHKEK
KRAS G12S, sequence (P62937 whole entry): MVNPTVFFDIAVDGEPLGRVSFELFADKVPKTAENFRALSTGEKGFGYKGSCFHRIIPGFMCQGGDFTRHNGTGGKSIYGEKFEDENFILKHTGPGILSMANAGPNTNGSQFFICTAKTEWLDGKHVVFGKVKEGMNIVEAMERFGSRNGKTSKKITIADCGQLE
From the text: as §1, §2, §3, §4

[3] = molecular target: KRAS G12V (Homo sapiens, UniProt P01116+P62937, G12V); conditions: with Cyclophilin A
KRAS G12V, sequence (P01116 1-169 isoform P01116-2 G12V limits assumed): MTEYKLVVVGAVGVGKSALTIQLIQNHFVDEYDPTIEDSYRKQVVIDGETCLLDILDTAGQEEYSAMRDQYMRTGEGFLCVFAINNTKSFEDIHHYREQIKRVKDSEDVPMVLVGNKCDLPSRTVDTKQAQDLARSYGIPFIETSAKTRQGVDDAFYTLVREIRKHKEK
KRAS G12V, sequence (P62937 whole entry): as the sequence (P62937 whole entry) above
From the text: as §1, §2, §3, §4

[4] = molecular target: KRAS G13C (Homo sapiens, UniProt P01116+P62937, G13C); conditions: with Cyclophilin A
KRAS G13C, sequence (P01116 1-169 isoform P01116-2 G13C limits assumed): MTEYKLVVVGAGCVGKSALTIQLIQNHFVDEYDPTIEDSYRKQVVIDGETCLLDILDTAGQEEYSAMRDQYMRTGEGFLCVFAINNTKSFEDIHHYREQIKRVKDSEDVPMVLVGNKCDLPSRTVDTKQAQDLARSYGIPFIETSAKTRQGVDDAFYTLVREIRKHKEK
KRAS G13C, sequence (P62937 whole entry): as the sequence (P62937 whole entry) above
From the text: as §1, §2, §3, §4

[5] = molecular target: KRAS G13D (Homo sapiens, UniProt P01116+P62937, G13D); conditions: with Cyclophilin A
KRAS G13D, sequence (P01116 1-169 isoform P01116-2 G13D limits assumed): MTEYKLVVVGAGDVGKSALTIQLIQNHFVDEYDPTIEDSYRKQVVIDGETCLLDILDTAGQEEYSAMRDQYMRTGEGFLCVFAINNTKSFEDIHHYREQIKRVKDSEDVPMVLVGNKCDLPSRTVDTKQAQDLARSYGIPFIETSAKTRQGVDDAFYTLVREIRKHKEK
KRAS G13D, sequence (P62937 whole entry): as the sequence (P62937 whole entry) above
From the text: as §1, §2, §3, §4

[6] = molecular target: KRAS WT (Homo sapiens, UniProt P01116+P62937); conditions: with Cyclophilin A
KRAS WT, sequence (P01116 1-169 isoform P01116-2 limits assumed): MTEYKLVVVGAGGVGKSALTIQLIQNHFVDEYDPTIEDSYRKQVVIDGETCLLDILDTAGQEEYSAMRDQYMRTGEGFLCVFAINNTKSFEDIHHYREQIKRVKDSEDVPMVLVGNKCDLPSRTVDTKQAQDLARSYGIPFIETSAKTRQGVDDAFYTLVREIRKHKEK
KRAS WT, sequence (P62937 whole entry): as the sequence (P62937 whole entry) above
From the text: as §1, §2, §3, §4

[7] = molecular target: NRAS G12C (Homo sapiens, UniProt P01111+P62937, G12C)
NRAS G12C, sequence (P01111 whole entry G12C): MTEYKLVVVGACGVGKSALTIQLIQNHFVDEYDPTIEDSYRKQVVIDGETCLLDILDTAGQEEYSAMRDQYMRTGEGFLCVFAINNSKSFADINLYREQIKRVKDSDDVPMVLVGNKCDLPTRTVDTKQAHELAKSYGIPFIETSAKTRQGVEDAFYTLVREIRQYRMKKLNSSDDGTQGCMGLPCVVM
NRAS G12C, sequence (P62937 whole entry): as the sequence (P62937 whole entry) above
From the text: as §1, §2, §3, §4

[8] = molecular target: KRAS G12C (Homo sapiens, UniProt P01116+P62937, G12C); conditions: with Cyclophilin A
KRAS G12C, sequence (P01116 1-169 isoform P01116-2 G12C limits assumed): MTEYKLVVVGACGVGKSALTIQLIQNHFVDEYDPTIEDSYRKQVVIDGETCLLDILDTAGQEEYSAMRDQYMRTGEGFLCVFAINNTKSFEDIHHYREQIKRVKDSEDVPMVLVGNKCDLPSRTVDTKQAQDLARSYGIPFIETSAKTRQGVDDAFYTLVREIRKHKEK
KRAS G12C, sequence (P62937 whole entry): as the sequence (P62937 whole entry) above
Outline: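 His6-K-Ras G12C-GMPPNP (12.5 nM), GST-BRAF RBD (50 nM) and tagless Cyclophilin A (25 μM) incubated 3 h at 25 °C with compound (10-point 3-fold series from 30 μM), pH 7.3 HEPES buffer. Anti-His Eu/anti-GST APC added for 1.5 h; decreased TR-FRET ratio vs DMSO gives IC50.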

[9] = Ras-Raf disruption, read-out: KRAS G12D FRET data IC50
[10] = Ras-Raf disruption, read-out: KRAS G12S FRET data IC50
[11] = Ras-Raf disruption, read-out: KRAS G12V FRET data IC50
[12] = Ras-Raf disruption, read-out: KRAS G13C FRET data IC50
[13] = Ras-Raf disruption, read-out: KRAS G13D FRET data IC50
[14] = Ras-Raf disruption, read-out: KRAS WT FRET data IC50
[15] = NRAS G12C, read-out: NRAS G12C FRET data IC50
[16] = Ras-Raf disruption, read-out: KRAS G12C FRET data IC50

KRAS G12D, sequence (P01116 1-169 isoform P01116-2 G12D limits assumed): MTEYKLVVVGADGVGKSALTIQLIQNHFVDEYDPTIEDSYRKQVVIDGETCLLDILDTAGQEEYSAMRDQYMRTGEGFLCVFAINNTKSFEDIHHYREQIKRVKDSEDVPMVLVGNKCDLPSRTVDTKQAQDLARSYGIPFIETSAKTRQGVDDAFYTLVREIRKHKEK
KRAS G12D, sequence (P62937 whole entry, the tested form may be a part): as the sequence (P62937 whole entry) above

SMILES | IC50 [1, 9] [nM] | IC50 [2, 10] [nM] | IC50 [3, 11] [nM] | IC50 [4, 12] [nM] | IC50 [5, 13] [nM] | IC50 [6, 14] [nM] | IC50 [7, 15] [nM] | IC50 [8, 16] [nM] | IC50 ([1]; KRAS G12D FRET data IC50, Ras-Raf disruption) [nM] | IC50 ([2]; KRAS G12S FRET data IC50, Ras-Raf disruption) [nM] | IC50 ([3]; KRAS G12V FRET data IC50, Ras-Raf disruption) [nM] | IC50 ([4]; KRAS G13C FRET data IC50, Ras-Raf disruption) [nM] | IC50 ([5]; KRAS G13D FRET data IC50, Ras-Raf disruption) [nM] | IC50 ([6]; KRAS WT FRET data IC50, Ras-Raf disruption) [nM] | IC50 ([7]; NRAS G12C FRET data IC50, NRAS G12C) [nM] | IC50 ([8]; KRAS G12C FRET data IC50, Ras-Raf disruption) [nM]
CCn1c(-c2cccnc2[C@H](C)OC)c2c3cc(ccc31)-c1cc(O)cc(c1)C[C@H](NC(=O)[C@H](C(C)C)N(C)C(=O)N1CC(NC(=O)[C@H]3CN3)C1)C(=O)N1CCC[C@H](N1)C(=O)OCC(C)(C)C2 (atropisomer, axis not shown) [Example 189] | 100 to 1000 | 100 to 1000 | 10 to 100 | 10 to 100 | 100 to 1000 | 10 to 100 | 10 to 100 | 10 to 100 | – | – | – | – | – | – | – | –
CCn1c(-c2cccnc2[C@H](C)OC)c2c3cc(ccc31)-c1cc(O)cc(c1)C[C@H](NC(=O)[C@H](C(C)C)N(C)C(=O)[C@H]1CCN(S(=O)(=O)[C@H]3CN3C)C1)C(=O)N1CCC[C@H](N1)C(=O)OCC(C)(C)C2 (single isomer, unassigned) [Example 57] | 1000 to 10000 | 100 to 1000 | 100 to 1000 | 10 to 100 | 100 to 1000 | 100 to 1000 | 100 to 1000 | 100 to 1000 | – | – | – | – | – | – | – | –
CCn1c(-c2cccnc2[C@H](C)OC)c2c3cc(ccc31)-c1cccc(c1)C[C@H](NC(=O)[C@H](C(C)C)N(C)C(=O)CCN=C=NCCOC)C(=O)N1CCC[C@H](N1)C(=O)OCC(C)(C)C2 [Example 74] | 100 to 1000 | 1000 to 10000 | 1000 to 10000 | 100 to 1000 | 1000 to 10000 | 1000 to 10000 | 10 to 100 | 10 to 100 | – | – | – | – | – | – | – | –
CCn1c(-c2cccnc2[C@H](C)OC)c2c3cc(ccc31)-c1cc(O)cc(c1)C[C@H](NC(=O)[C@H](C(C)C)N1CC[C@]3(CCN(C(=O)[C@H]4CN4)C3)C1=O)C(=O)N1CCC[C@H](N1)C(=O)OCC(C)(C)C2 [Example 146] | 10 to 100 | 10 to 100 | 10 to 100 | 10 to 100 | 100 to 1000 | 10 to 100 | < 10 | < 10 | – | – | – | – | – | – | – | –
CCn1c(-c2cccnc2[C@H](C)OC)c2c3cc(ccc31)-c1cc(O)cc(c1)C[C@H](NC(=O)[C@H](C(C)C)N(C)C(=O)[C@H]1CCN(C(=O)[C@H]3CN3)C1)C(=O)N1CCC[C@H](N1)C(=O)OCC(C)(C)C2 (single isomer, unassigned) [Example 43A] | 10 to 100 | 10 to 100 | 10 to 100 | 10 to 100 | 10 to 100 | 10 to 100 | < 10 | < 10 | – | – | – | – | – | – | – | –
CCn1c(-c2cccnc2[C@H](C)OC)c2c3cc(ccc31)-c1cc(O)cc(c1)C[C@H](NC(=O)[C@H](C(C)C)N(C)C(=O)[C@@]1(F)CCN(C(=O)[C@@H]3CN3)C1)C(=O)N1CCC[C@H](N1)C(=O)OCC(C)(C)C2 (atropisomer, axis not shown) [Example 185] | 100 to 1000 | 100 to 1000 | 100 to 1000 | 10 to 100 | 100 to 1000 | 100 to 1000 | 10 to 100 | 10 to 100 | – | – | – | – | – | – | – | –
CCn1c(-c2cccnc2[C@H](C)OC)c2c3cc(ccc31)-c1cc(O)cc(c1)C[C@H](NC(=O)[C@H](C(C)C)N(C)C(=O)[C@H]1CCN(S(=O)(=O)[C@@H]3CN3C)C1)C(=O)N1CCC[C@H](N1)C(=O)OCC(C)(C)C2 (single isomer, unassigned) [Example 56] | 100 to 1000 | 100 to 1000 | 100 to 1000 | 10 to 100 | 100 to 1000 | 100 to 1000 | 100 to 1000 | 10 to 100 | – | – | – | – | – | – | – | –
CCn1c(-c2cccnc2[C@H](C)OC)c2c3cc(ccc31)-c1cccc(c1)C[C@H](NC(=O)[C@H](C(C)C)N(C)C(=O)[C@H]1CC[C@H](N=C=NCc3ccccc3OC)C1)C(=O)N1CCC[C@H](N1)C(=O)OCC(C)(C)C2 [Example 76] | 1000 to 10000 | > 10000 | > 10000 | 100 to 1000 | > 10000 | 1000 to 10000 | 100 to 1000 | 100 to 1000 | – | – | – | – | – | – | – | –
CCn1c(-c2cccnc2[C@H](C)OC)c2c3cc(ccc31)-c1cc(O)cc(c1)C[C@H](NC(=O)[C@H](C(C)C)N(C)C(=O)c1ccc([C@H]3CN3)cc1)C(=O)N1CCC[C@H](N1)C(=O)OCC(C)(C)C2 [Example 145] | 1000 to 10000 | 100 to 1000 | 100 to 1000 | 10 to 100 | 100 to 1000 | 100 to 1000 | 100 to 1000 | 100 to 1000 | – | – | – | – | – | – | – | –
CCn1c(-c2cccnc2[C@H](C)OC)c2c3cc(ccc31)-c1cc(O)cc(c1)C[C@H](NC(=O)[C@H](C(C)C)N(C)C(=O)CC1CN(C(=O)[C@@H]3CN3)C1)C(=O)N1CCC[C@H](N1)C(=O)OCC(C)(C)C2 [Example 178] | 100 to 1000 | 100 to 1000 | 100 to 1000 | 10 to 100 | 100 to 1000 | 100 to 1000 | 10 to 100 | 10 to 100 | – | – | – | – | – | – | – | –
CCn1c(-c2cccnc2[C@H](C)OC)c2c3cc(ccc31)-c1cccc(c1)C[C@H](NC(=O)[C@H](C(C)C)N(C)C(=O)[C@H]1CC[C@H](N=C=NC(C)(C)C)C1)C(=O)N1CCC[C@H](N1)C(=O)OCC(C)(C)C2 [Example 125] | 1000 to 10000 | > 10000 | > 10000 | 100 to 1000 | > 10000 | > 10000 | 10 to 100 | 10 to 100 | – | – | – | – | – | – | – | –
CCn1c(-c2cnccc2COC)c2c3cc(ccc31)-c1cccc(c1)C[C@H](NC(=O)[C@H](C(C)C)N(C)C(=O)CC(C)(C)N=C=Nc1ccc(OC)cc1)C(=O)N1CCC[C@H](N1)C(=O)OCC(C)(C)C2 [64 A and B] | > 10000 | > 10000 | > 10000 | > 10000 | > 10000 | > 10000 | > 10000 | > 10000 | – | – | – | – | – | – | – | –
CCn1c(-c2cccnc2[C@H](C)OC)c2c3cc(ccc31)-c1cc(O)cc(c1)C[C@H](NC(=O)[C@H](C(C)C)N(C)C(=O)[C@H]1CCN1C(=O)[C@H]1CN1)C(=O)N1CCC[C@H](N1)C(=O)OCC(C)(C)C2 [Example 158] | – | – | – | – | – | – | – | – | 100 to 1000 | 10 to 100 | 10 to 100 | 10 to 100 | 10 to 100 | 10 to 100 | 10 to 100 | 10 to 100
CCn1c(-c2cccnc2[C@H](C)OC)c2c3cc(ccc31)-c1cc(O)cc(c1)C[C@H](NC(=O)[C@H](C(C)C)N(C)C(=O)c1ccc([C@@H]3CN3)cc1)C(=O)N1CCC[C@H](N1)C(=O)OCC(C)(C)C2 [Example 131] | 100 to 1000 | 100 to 1000 | 100 to 1000 | 10 to 100 | 100 to 1000 | 100 to 1000 | 10 to 100 | 10 to 100 | – | – | – | – | – | – | – | –
CCn1c(-c2cccnc2[C@H](C)OC)c2c3cc(ccc31)-c1cc(O)cc(c1)C[C@H](NC(=O)[C@H](C(C)C)N1CCC3(CCN(C(=O)[C@H]4CN4)C3)C1=O)C(=O)N1CCC[C@H](N1)C(=O)OCC(C)(C)C2 (stereo partly drawn) [Example 59] | 10 to 100 | 10 to 100 | 10 to 100 | 10 to 100 | 100 to 1000 | 10 to 100 | < 10 | 10 to 100 | – | – | – | – | – | – | – | –
